{"source": "patent US20220313708A1", "about": "“COMBINATION PRODUCT CONTAINING LIMONOID COMPOUND AND SGLT-2 INHIBITOR” (ZHEJIANG YANGSHENGTANG INSTITUTE OF NATURAL MEDICATION CO., …, priority 2019, published 2022)", "system": "mouse type II diabetes model with pancreatic islet damage and obesity", "experiment": "Blood glucose in mouse type II diabetes model with pancreatic islet damage and obesity (STZ + high-fat diet, Example 5, tofogliflozin)", "assay_type": "in vivo", "conditions": "STZ + high-fat diet ICR mice; single agent 0.5 g/kg per day by gavage, two weeks; 1 h after last administration; mean ± SD", "text": "In this example, a mouse model of type II diabetes with pancreatic islet damage and obesity was established by multiple modeling ICR mice with a small dose of streptozotocin (STZ), following with continuous high-fat diets (referring to literature: Zhang Jiyuan et al, Study on the effect of three plant extracts on improving glucose and lipid metabolism in type 2 diabetic mice, Food and Machinery, 2016, 32 (12): 142-147). […]\nExperimental grouping: 15 male mice were randomly selected as the normal control group, and the remaining mice were subjected to a high-fat diet (high-fat diet formula: cholesterol 1%, egg yolk powder 10%, lard oil 10%, and basic feed 79%, for establishing an obesity mouse model) for consecutive 4 weeks and intraperitoneal injection of STZ at a dose of 35 mg/kg for three consecutive days. After one week, the mice were subject to 24 hours of fasting and water deprivation, their fasting blood glucose was measured, and the mice with a blood glucose level of 15 to 25 mmol/L were selected and undifferentiatedly grouped and used in the experiment, continuously subjected to the high-fat diet, 15 mice in each group, and subjected to blood sampling and detection of indicators after 2 weeks of administration. […]", "data": [{"smiles": "CCc1ccc(Cc2ccc3c(c2)[C@]2(OC3)O[C@H](CO)[C@@H](O)[C@H](O)[C@H]2O)cc1", "note": "[Tofogliflozin, tofogliflozin]", "values": [{"measurement": "Blood glucose value", "result": "10.1 ± 2.7", "unit": "mmol/L"}]}]}
